# Source: patent US7294633B2, “Oxazolo-and furopyrimidines and their use in medicaments against tumors” (Novartis AG, priority 2001, dated 2007)
smiles,measurement,value
"C[C@@H](Nc1ncnc2oc(-c3cccc(N)c3)cc12)c1ccccc1 [Example 13, 4-(1R-phenylethylamino)-6-(3-aminophenyl)furo[2,3-d]pyrimidine]",melting point,64 to 84 °C
